# In ChEMBL document CHEMBL3885881, “DrugMatrix”:
# Organism: Rattus norvegicus
# Assay: DrugMatrix - Regimen: Daily Repeat
# Assay type: toxicity, organism-based, Sprague-Dawley
# Set-up: regimen Daily Repeat, gender Male, age 6-8 weeks
# Conditions: in vivo, po, route oral GAVAGE, vehicle .5 % CMC; for ABSOLUTE BASOPHIL / ABSOLUTE EOSINOPHIL / ABSOLUTE LYMPHOCYTE / ABSOLUTE MONOCYTE / ABSOLUTE SEGMENTED NEUTROPHIL / BASOPHIL / EOSINOPHIL / ERYTHROCYTE COUNT / HEMATOCRIT / HEMOGLOBIN / LEUKOCYTE COUNT / LYMPHOCYTE / MEAN CORPUSCULAR HEMOGLOBIN / MEAN CORPUSCULAR HEMOGLOBIN CONCENTRATION / MEAN CORPUSCULAR VOLUME / MONOCYTE / NEUTROPHIL / NUCLEATED RED BLOOD CELLS / PLATELET COUNT: tissue Blood; for ALANINE AMINOTRANSFERASE / ALBUMIN / ALKALINE PHOSPHATASE / ASPARTATE AMINOTRANSFERASE / BLOOD UREA NITROGEN / CARBON DIOXIDE / CHLORIDE / CHOLESTEROL / CREATINE PHOSPHOKINASE / CREATININE / GLUCOSE / LACTATE DEHYDROGENASE / LIPASE / PHOSPHORUS / POTASSIUM / SODIUM / TOTAL BILIRUBIN / TOTAL PROTEIN / URIC ACID: tissue Plasma
# [1] = 100 mg/kg, 72 h, dose level Low, time 3 day
# [2] = 100 mg/kg, 120 h, dose level Low, time 5 day
# [3] = 1500 mg/kg, 72 h, dose level High, time 3 day
# [4] = 1500 mg/kg, 120 h, dose level High, time 5 day
structure (smiles),measurement,setting,value
Nc1nc2c(c(=O)[nH]1)N(C=O)C(CNc1ccc(C(=O)N[C@@H](CCC(=O)O)C(=O)O)cc1)CN2 (some centres not stated) [LEUCOVORIN],ABSOLUTE BASOPHIL,[1],0 CELLS/uL
same,ABSOLUTE EOSINOPHIL,[1],0 CELLS/uL
same,ABSOLUTE LYMPHOCYTE,[1],14793 CELLS/uL
same,ABSOLUTE MONOCYTE,[1],101.33 CELLS/uL
same,ABSOLUTE SEGMENTED NEUTROPHIL,[1],1572.33 CELLS/uL
same,BASOPHIL,[1],0%
same,EOSINOPHIL,[1],0%
same,ERYTHROCYTE COUNT,[1],5.73 x10E6/uL
same,HEMATOCRIT,[1],35.97%
same,HEMOGLOBIN,[1],14.23 G/DL
same,LEUKOCYTE COUNT,[1],16.47 x10E3/uL
same,LYMPHOCYTE,[1],89.67%
same,MEAN CORPUSCULAR HEMOGLOBIN,[1],24.9 pg
same,MEAN CORPUSCULAR HEMOGLOBIN CONCENTRATION,[1],39.63 G/DL
same,MEAN CORPUSCULAR VOLUME,[1],62.83 fL
same,MONOCYTE,[1],0.67%
same,NEUTROPHIL,[1],9.67%
same,NUCLEATED RED BLOOD CELLS,[1],0.33 /100WBC
same,PLATELET COUNT,[1],1244.67 x10E3/uL
same,ALANINE AMINOTRANSFERASE,[1],62.33 u/L
same,ALBUMIN,[1],4.43 G/DL
same,ALKALINE PHOSPHATASE,[1],427.33 u/L
same,ASPARTATE AMINOTRANSFERASE,[1],83.67 u/L
same,BLOOD UREA NITROGEN,[1],16.33 mg/dL
same,CARBON DIOXIDE,[1],29 mmol/L
same,CHLORIDE,[1],98.67 MEQ/L
same,CHOLESTEROL,[1],67 mg/dL
same,CREATINE PHOSPHOKINASE,[1],289.67 u/L
same,CREATININE,[1],0.22 mg/dL
same,GLUCOSE,[1],142 mg/dL
same,LACTATE DEHYDROGENASE,[1],152.33 u/L
same,LIPASE,[1],9.33 u/L
same,PHOSPHORUS,[1],14.03 mg/dL
same,POTASSIUM,[1],7.04 MEQ/L
same,SODIUM,[1],146.13 MEQ/L
same,TOTAL BILIRUBIN,[1],0.3 mg/dL
same,TOTAL PROTEIN,[1],6.1 G/DL
same,URIC ACID,[1],1.77 mg/dL
same,ABSOLUTE BASOPHIL,[2],0 CELLS/uL
same,ABSOLUTE EOSINOPHIL,[2],60.33 CELLS/uL
same,ABSOLUTE LYMPHOCYTE,[2],13263.33 CELLS/uL
same,ABSOLUTE MONOCYTE,[2],23.33 CELLS/uL
same,ABSOLUTE SEGMENTED NEUTROPHIL,[2],1019.67 CELLS/uL
same,BASOPHIL,[2],0%
same,EOSINOPHIL,[2],0.33%
same,ERYTHROCYTE COUNT,[2],5.54 x10E6/uL
same,HEMATOCRIT,[2],36.17%
same,HEMOGLOBIN,[2],13.53 G/DL
same,LEUKOCYTE COUNT,[2],14.37 x10E3/uL
same,LYMPHOCYTE,[2],92.67%
same,MEAN CORPUSCULAR HEMOGLOBIN,[2],24.4 pg
same,MEAN CORPUSCULAR HEMOGLOBIN CONCENTRATION,[2],37.4 G/DL
same,MEAN CORPUSCULAR VOLUME,[2],65.23 fL
same,MONOCYTE,[2],0.33%
same,NEUTROPHIL,[2],6.67%
same,NUCLEATED RED BLOOD CELLS,[2],1 /100WBC
same,PLATELET COUNT,[2],1225.67 x10E3/uL
same,ALANINE AMINOTRANSFERASE,[2],52 u/L
same,ALBUMIN,[2],4.3 G/DL
same,ALKALINE PHOSPHATASE,[2],311.67 u/L
same,ASPARTATE AMINOTRANSFERASE,[2],76 u/L
same,BLOOD UREA NITROGEN,[2],15.33 mg/dL
same,CARBON DIOXIDE,[2],26 mmol/L
same,CHLORIDE,[2],102 MEQ/L
same,CHOLESTEROL,[2],57.33 mg/dL
same,CREATINE PHOSPHOKINASE,[2],211.67 u/L
same,CREATININE,[2],0.21 mg/dL
same,GLUCOSE,[2],175.67 mg/dL
same,LACTATE DEHYDROGENASE,[2],113.33 u/L
same,LIPASE,[2],8.67 u/L
same,PHOSPHORUS,[2],12.6 mg/dL
same,POTASSIUM,[2],6.61 MEQ/L
same,SODIUM,[2],146.23 MEQ/L
same,TOTAL BILIRUBIN,[2],0.23 mg/dL
same,TOTAL PROTEIN,[2],6.1 G/DL
same,URIC ACID,[2],1.7 mg/dL
same,ABSOLUTE BASOPHIL,[3],0 CELLS/uL
same,ABSOLUTE EOSINOPHIL,[3],0 CELLS/uL
same,ABSOLUTE LYMPHOCYTE,[3],14453.33 CELLS/uL
same,ABSOLUTE MONOCYTE,[3],60 CELLS/uL
same,ABSOLUTE SEGMENTED NEUTROPHIL,[3],2253.33 CELLS/uL
same,BASOPHIL,[3],0%
same,EOSINOPHIL,[3],0%
same,ERYTHROCYTE COUNT,[3],5.28 x10E6/uL
same,HEMATOCRIT,[3],35.03%
same,HEMOGLOBIN,[3],13.77 G/DL
same,LEUKOCYTE COUNT,[3],16.77 x10E3/uL
same,LYMPHOCYTE,[3],86.33%
same,MEAN CORPUSCULAR HEMOGLOBIN,[3],26.07 pg
same,MEAN CORPUSCULAR HEMOGLOBIN CONCENTRATION,[3],39.33 G/DL
same,MEAN CORPUSCULAR VOLUME,[3],66.33 fL
same,MONOCYTE,[3],0.33%
same,NEUTROPHIL,[3],13.33%
same,NUCLEATED RED BLOOD CELLS,[3],0 /100WBC
same,PLATELET COUNT,[3],1212 x10E3/uL
same,ALANINE AMINOTRANSFERASE,[3],44.33 u/L
same,ALBUMIN,[3],4.3 G/DL
same,ALKALINE PHOSPHATASE,[3],372.67 u/L
same,ASPARTATE AMINOTRANSFERASE,[3],77.67 u/L
same,BLOOD UREA NITROGEN,[3],11.33 mg/dL
same,CARBON DIOXIDE,[3],32 mmol/L
same,CHLORIDE,[3],102 MEQ/L
same,CHOLESTEROL,[3],68.33 mg/dL
same,CREATINE PHOSPHOKINASE,[3],183.67 u/L
same,CREATININE,[3],0.15 mg/dL
same,GLUCOSE,[3],156 mg/dL
same,LACTATE DEHYDROGENASE,[3],116 u/L
same,LIPASE,[3],8.67 u/L
same,PHOSPHORUS,[3],13.4 mg/dL
same,POTASSIUM,[3],6.98 MEQ/L
same,SODIUM,[3],146.03 MEQ/L
same,TOTAL BILIRUBIN,[3],0.17 mg/dL
same,TOTAL PROTEIN,[3],6 G/DL
same,URIC ACID,[3],1.83 mg/dL
same,ABSOLUTE BASOPHIL,[4],0 CELLS/uL
same,ABSOLUTE EOSINOPHIL,[4],46.33 CELLS/uL
same,ABSOLUTE LYMPHOCYTE,[4],14356 CELLS/uL
same,ABSOLUTE MONOCYTE,[4],200.33 CELLS/uL
same,ABSOLUTE SEGMENTED NEUTROPHIL,[4],930.67 CELLS/uL
same,BASOPHIL,[4],0%
same,EOSINOPHIL,[4],0.33%
same,ERYTHROCYTE COUNT,[4],5.73 x10E6/uL
same,HEMATOCRIT,[4],35.37%
same,HEMOGLOBIN,[4],14.17 G/DL
same,LEUKOCYTE COUNT,[4],15.53 x10E3/uL
same,LYMPHOCYTE,[4],92.33%
same,MEAN CORPUSCULAR HEMOGLOBIN,[4],24.8 pg
same,MEAN CORPUSCULAR HEMOGLOBIN CONCENTRATION,[4],40.07 G/DL
same,MEAN CORPUSCULAR VOLUME,[4],61.77 fL
same,MONOCYTE,[4],1.33%
same,NEUTROPHIL,[4],6%
same,NUCLEATED RED BLOOD CELLS,[4],0 /100WBC
same,PLATELET COUNT,[4],1112.33 x10E3/uL
same,ALANINE AMINOTRANSFERASE,[4],56.67 u/L
same,ALBUMIN,[4],4.3 G/DL
same,ALKALINE PHOSPHATASE,[4],387 u/L
same,ASPARTATE AMINOTRANSFERASE,[4],87.33 u/L
same,BLOOD UREA NITROGEN,[4],16.33 mg/dL
same,CARBON DIOXIDE,[4],36 mmol/L
same,CHLORIDE,[4],99.67 MEQ/L
same,CHOLESTEROL,[4],57.33 mg/dL
same,CREATINE PHOSPHOKINASE,[4],288.67 u/L
same,CREATININE,[4],0.2 mg/dL
same,GLUCOSE,[4],147 mg/dL
same,LACTATE DEHYDROGENASE,[4],263.67 u/L
same,LIPASE,[4],9 u/L
same,PHOSPHORUS,[4],12.9 mg/dL
same,POTASSIUM,[4],6.55 MEQ/L
same,SODIUM,[4],145.83 MEQ/L
same,TOTAL BILIRUBIN,[4],0.2 mg/dL
same,TOTAL PROTEIN,[4],6.13 G/DL
same,URIC ACID,[4],1.37 mg/dL
